# Results taken from patent US8962600B2, “Neuroprotective compounds and their use” (The Medical College of Wisconsin, Inc., priority 2009, dated 2015).
# Columns and labels:
# [1] = tested on: subchronic MPTP mouse model; assay: Subchronic MPTP mouse model, striatal neurotransmitters by HPLC-EC (Example 2); assay type: in vivo; details: for protection against subchronic MPTP-induced depletion of striatal dopac levels / protection against subchronic MPTP-induced depletion of striatal dopamine levels: MPTP 20 mg/kg i.p. 5 days
# Experimental: The triphenylphosphonium-conjugated apocynin analogue, Mito-apocynin, acts as a potent mitochondrial targeted antioxidant (MTA). The nigrostriative dopaminergic neurons undergo destruction in a slow and progressive manner in idiopathic PD. In order to mimic this condition in a preclinical mouse model, a subchronic MPTP mouse model was developed. The mouse model used here was similar to that used in Example 3 below. Mice were treated with Mito-apocynin (3 mg/kg, oral gavage) for 1 day followed by subchronic MPTP (20 mg/kg, i.p.) administration for 5 days. Animals were sacrificed 7 days after the last dose of MPTP (Mito-apocynin was administered during the 7 days). Striatal neurotransmitters (dopamine, dopac) were analyzed by HPLC-EC. Similar experiments were performed with apocynin (20 mg/kg, oral gavage; lower doses were also tested but not effective).
# G93A mice = details: apocynin 300 mg/kg; cited from earlier work
# BV2 microglial cells = assay: LPS-induced iNOS activation (nitrite, Griess reagent) in BV2 microglial cells; assay type: cell-based, mouse; details: 30 min pretreatment, Griess reagent
# Experimental: Two cell models of neuroinflammation were used to evaluate the anti-neuroinflammatory property of diapocynin including the mouse BV2 microglial cell line, as well as primary microglia isolated from mouse brains. BV2 cells were obtained from the American Tissue Culture Collection. BV2 cells were maintained in RPMI containing 10% FBS and 100 units of pen/strep at 37° C. and 5% CO2. For treatments, RPMI containing 2% FBS and 100 units of pen/strep was used.
# Inducible nitric oxide synthase (iNOS or NOS2) activation was assessed by measuring nitrite levels using Griess reagent in a 96-well format (70-72). Each well contained 40,000 BV2 cells or 100,000 primary microglia. BV2 cells were cultured in 150 μl of RPMI containing 10% FBS and pen/strep, and the primary microglia were cultured in DMEM-F12 containing 10% FBS, pen/strep, sodium pyruvate (S/P), Q, and NEAAs. One day after culturing, cells were replaced with 150 μl of their respective complete media containing only 2% FBS. Both cell types were pretreated with diapocynin (10 μM) and apocynin (100 μM) for 30 min before LPS stimulation (1 μg/ml LPS for BV2 cells and 100 ng/ml for primary microglia), and the plates were incubated at 37° C. After 24 hr at 37° C., 100 μl of supernatant were removed and placed into a new 96 well plate, to which 100 μl of Griess reagent were added. The plate was shaken on a plate shaker for 10 min before being read in a plate reader at 540 nm.
# This example generally followed the cell culture, treatment, and analysis steps of Example 4 above.
# Diapocynin diacetate (diapodiacetate or diapo diace) suppresses LPS-induced NOS-2 in BV2 microglial cells (FIG. 21). BV-2 cells were plated in 96 well plates, 40,000 cells per well, and treated in 150 μl of RPMI containing 2% heat inactivated FBS and penicillin/streptomycin. Diapo diacetate was used on the cells as a 30 min pretreatment, then LPS (1 μg/ml) was added. All treatments were allowed to incubate at 37° C. for 24 hr, starting from the addition of LPS. One hundred microliter aliquots of supernatant from each well were combined with 100 μl of Griess reagent (Sigma) in a 96-well plate and allowed to shake for 10 minutes before being read on the plate reader. The percent nitrite level for the treatments compared to the control was graphed.
# IL-10 = assay: LPS-induced IL-10 release in primary microglia, LUMINEX immunoassay; assay type: cell-based, mouse; details: apocynin 100 μM, LPS 24 hr
# Experimental: (§1) Primary microglia were obtained from 1-2 day old C57/b16 mouse pups. Upon collection, whole brains were kept in ice-cold DMEM-F12 medium containing 10% FBS, 1× sodium pyruvate, 1× NEAAs, 100 units pen/strep, and Q. After collection, the brains were placed in 0.25% trypsin-EDTA and incubated at 37° C., with gentle shaking every 5-10 min. After 30 min, the trypsin was removed, and the brains are washed in warmed medium twice. After washing, medium was added to the brains, and the brains were homogenized using gentle pipetting, starting with a 25 ml pipette and moving to smaller pipette tips as the brains were broken up. When the brains were sufficiently homogenized to a single-cell suspension, they were filtered with a 70 μm nylon filter, which allowed microglia and astrocytes to be collected. The resultant cell suspension was plated in T-75 flasks and allowed to grow for 12-14 days at 37° C., 5% CO2. […]
# (§2) Cytokine levels of BV2 and microglial cells treated with diapocynin were determined by LUMINEX® multiplex immunoassay. […]
# (§3) Cytokine standards and controls were adjusted to 40 μl volume and the LUMINEX® Samples were run on a LUMINEX® 200 Total System and analyzed with Multiplex Analysis—LUMINEX® Software (Invitrogen, Carlsbad, Calif.).
# TNF-α = assay: LPS-induced TNF-α release in primary microglia, LUMINEX immunoassay; assay type: cell-based, mouse; details: apocynin 100 μM, LPS 24 hr
# Experimental: as §1, §2, §3
# IL-1β = assay: LPS-induced IL-1β release in primary microglia, LUMINEX immunoassay; assay type: cell-based, mouse; details: apocynin 100 μM, LPS 24 hr
# Experimental: as §1, §2, §3
# IL-12 = assay: LPS-induced IL-12 release in primary microglia, LUMINEX immunoassay; assay type: cell-based, mouse; details: apocynin 100 μM, LPS 24 hr
# Experimental: as §1, §2, §3
# [2] = Mito-apocynin 3 mg/kg oral gavage, sacrifice 7 days after last MPTP dose
compound,measurement,setting,value
COc1cc(C(=O)NCC[P+](c2ccccc2)(c2ccccc2)c2ccccc2)ccc1O.[Br-] [Mito-apocynin],protection against subchronic MPTP-induced depletion of striatal dopac levels,[1]; [2],almost completely protected
same,protection against subchronic MPTP-induced depletion of striatal dopamine levels,[1]; [2],almost completely protected
"COc1cc(C(C)=O)ccc1O [apocynin, Apocynin, reference compound]",lifespan of G93A mice,G93A mice,markedly enhanced
same,EC50,"BV2 microglial cells; Mus musculus, BV-2 cells, LPS 1 μg/ml, non-linear regression of dose response curve, read-out: EC50, block of LPS-induced iNOS activation (nitrite level)",61.3 µM
same,blocking LPS-induced release of IL-10,IL-10,also effective
same,blocking LPS-induced release of TNF-α,TNF-α,also effective
same,blocking LPS-induced release of IL-1β,IL-1β,also effective
same,blocking LPS-induced release of IL-12,IL-12,also effective
same,protection against subchronic MPTP-induced depletion of striatal dopac levels,[1]; apocynin 20 mg/kg oral gavage,not
same,protection against subchronic MPTP-induced depletion of striatal dopamine levels,[1]; apocynin 20 mg/kg oral gavage,not
same,"effect on striatal neurotransmitters (dopamine, dopac)","[1]; apocynin at doses lower than 20 mg/kg, oral gavage",not effective
Diapocynin diacetate,LPS-induced NOS-2 (percent nitrite level compared to control),"BV2 microglial cells; BV2 cells, LPS 1 μg/ml 24 hr",suppresses
